Assay results: patent US12564193B2, “Isoxazoline-substituted benzamide derivative, and preparation method therefor and use thereof” (SHANDONG UNITED PESTICIDE INDUSTRY CO., LTD., priority 2020, dated 2026)
Like-named read-outs stand apart in the source and are kept apart here.

Legend:
Type in all cases: in vivo
[1] = tested on: Pieris rapae; experiment: Insecticidal activity, spray on pre-infested radish plants: Pieris rapae; details: 144 h, read-out: fatality rate on Pieris rapae
Procedure, shortened: (§1)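 Radish plants (12-15 days), 30-40 pests/plant via leaf cutting, soil sand-covered; spray compound in acetone/methanol/DMSO; dry 1 h; mesh cover; 25° C, 70% RH, 6 d; visual mortality; three replicates.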

[2] = tested on: Frankliniella occidentalis; experiment: Insecticidal activity, spray on pre-infested radish plants: Frankliniella occidentalis; details: Frankliniella occidentalis, 144 h, read-out: fatality rate on Frankliniella occidentalis
Procedure, shortened: (§2)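 First, 30-40 pests are transferred onto 12-15 day old radish plants on a cut leaf, and the soil is covered with sand. The compound solution is then sprayed and left to dry for 1 hour before a mesh cover is fitted. Insect mortality is read visually after 6 days at 25° C and 70% relative humidity.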

[3] = tested on: Plutella xylostella; experiment: Insecticidal activity, spray on pre-infested radish plants: Plutella xylostella; details: Plutella xylostella, 144 h, read-out: fatality rate on Plutella xylostella
Procedure, shortened: as §2

[4] = tested on: Tetranychus cinnabarinus; experiment: Acaricidal activity, slide immersion of female adult mites: Tetranychus cinnabarinus; details: read-out: fatality rate on Tetranychus cinnabarinus
Procedure, shortened: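 Female adult mites stuck dorsally on tape on slides (4 rows of 10), dipped 5 s in test solution, excess blotted, incubated 24 h. Mites with immobile feet on brush touch scored dead; fatality rate calculated.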

[5] = tested on: Cnaphalocrocis medinalis; experiment: Insecticidal activity, spray on pre-infested radish plants: Cnaphalocrocis medinalis; details: 144 h, read-out: fatality rate on Cnaphalocrocis medinalis
Procedure, shortened: as §1

[6] = tested on: Chilo suppressalis; experiment: Insecticidal activity, spray on pre-infested radish plants: Chilo suppressalis; details: Chilo suppressalis, 144 h, read-out: fatality rate on Chilo suppressalis
Procedure, shortened: as §2

[7] = tested on: Spodoptera litura; experiment: Insecticidal activity, spray on pre-infested radish plants: Spodoptera litura; details: 144 h, read-out: fatality rate on Spodoptera litura
Procedure, shortened: as §2

[8] = tested on: Mythimna separata; experiment: Insecticidal activity, spray on pre-infested radish plants: Mythimna separata; details: Mythimna separata, 144 h, read-out: fatality rate on Mythimna separata
Procedure, shortened: as §2

[9] = dose 1 ppm, immersion 5 seconds, checked after 24 hours
[10] = dose 10 ppm, immersion 5 seconds, checked after 24 hours
[11] = dose 25 ppm, immersion 5 seconds, checked after 24 hours

Cc1cc(C2=NOC(c3cc(Cl)c(F)c(Cl)c3)(C(F)(F)F)C2)ccc1C(=O)NCc1ncc(Cl)cc1Cl (stereo not drawn) [Compound 11]
> 80%: pest or weed control at 0.1 ppm [1] | pest or weed control at 1 ppm [1] | pest or weed control at 10 ppm [1] | pest or weed control at 1 ppm [2] | pest or weed control at 10 ppm [2] | pest or weed control at 25 ppm [2] | pest or weed control at 0.1 ppm [3] | pest or weed control at 1 ppm [3] | pest or weed control at 10 ppm [3] | pest or weed control at 1 ppm ([4]; 24 h) | pest or weed control at 10 ppm ([4]; 24 h) | pest or weed control at 25 ppm ([4]; 24 h) | pest or weed control at 0.1 ppm [5] | pest or weed control at 1 ppm [5] | pest or weed control at 10 ppm [5] | pest or weed control at 0.1 ppm [6] | pest or weed control at 1 ppm [6] | pest or weed control at 10 ppm [6] | pest or weed control at 0.1 ppm [7] | pest or weed control at 1 ppm [7] | pest or weed control at 10 ppm [7] | pest or weed control at 0.1 ppm [8] | pest or weed control at 1 ppm [8] | pest or weed control at 10 ppm [8]

Cc1cc(C2=NOC(c3cc(F)c(F)c(F)c3)(C(F)(F)F)C2)ccc1C(=O)NCc1ncc(Cl)cc1Cl (stereo not drawn) [Compound 12]
> 80%: pest or weed control at 0.1 ppm ([1]; dose 0.1 ppm, spray, 6 days) | pest or weed control at 1 ppm ([1]; dose 1 ppm, spray, 6 days) | pest or weed control at 10 ppm ([1]; dose 10 ppm, spray, 6 days) | pest or weed control at 1 ppm ([2]; dose 1 ppm, spray, 6 days) | pest or weed control at 10 ppm ([2]; dose 10 ppm, spray, 6 days) | pest or weed control at 25 ppm ([2]; dose 25 ppm, spray, 6 days) | pest or weed control at 0.1 ppm ([3]; dose 0.1 ppm, spray, 6 days) | pest or weed control at 1 ppm ([3]; dose 1 ppm, spray, 6 days) | pest or weed control at 10 ppm ([3]; dose 10 ppm, spray, 6 days) | pest or weed control at 1 ppm [4, 9] | pest or weed control at 10 ppm [4, 10] | pest or weed control at 25 ppm [4, 11] | pest or weed control at 0.1 ppm ([5]; dose 0.1 ppm, spray, 6 days) | pest or weed control at 1 ppm ([5]; dose 1 ppm, spray, 6 days) | pest or weed control at 10 ppm ([5]; dose 10 ppm, spray, 6 days) | pest or weed control at 0.1 ppm ([6]; dose 0.1 ppm, spray, 6 days) | pest or weed control at 1 ppm ([6]; dose 1 ppm, spray, 6 days) | pest or weed control at 10 ppm ([6]; dose 10 ppm, spray, 6 days) | pest or weed control at 0.1 ppm ([7]; dose 0.1 ppm, spray, 6 days) | pest or weed control at 1 ppm ([7]; dose 1 ppm, spray, 6 days) | pest or weed control at 10 ppm ([7]; dose 10 ppm, spray, 6 days) | pest or weed control at 0.1 ppm ([8]; dose 0.1 ppm, spray, 6 days) | pest or weed control at 1 ppm ([8]; dose 1 ppm, spray, 6 days) | pest or weed control at 10 ppm ([8]; dose 10 ppm, spray, 6 days)

Cc1cc(C2=NOC(c3cc(Cl)c(F)c(Cl)c3)(C(F)(F)F)C2)ccc1C(=O)NCc1ncccc1Cl (stereo not drawn) [Compound 13]
> 80%: pest or weed control at 0.1 ppm [1] | pest or weed control at 1 ppm [1] | pest or weed control at 10 ppm [1] | pest or weed control at 1 ppm [2] | pest or weed control at 10 ppm [2] | pest or weed control at 25 ppm [2] | pest or weed control at 0.1 ppm [3] | pest or weed control at 1 ppm [3] | pest or weed control at 10 ppm [3] | pest or weed control at 1 ppm ([4]; 24 h) | pest or weed control at 10 ppm ([4]; 24 h) | pest or weed control at 25 ppm ([4]; 24 h) | pest or weed control at 0.1 ppm [5] | pest or weed control at 1 ppm [5] | pest or weed control at 10 ppm [5] | pest or weed control at 0.1 ppm [6] | pest or weed control at 1 ppm [6] | pest or weed control at 10 ppm [6] | pest or weed control at 0.1 ppm [7] | pest or weed control at 1 ppm [7] | pest or weed control at 10 ppm [7] | pest or weed control at 0.1 ppm [8] | pest or weed control at 1 ppm [8] | pest or weed control at 10 ppm [8]

Cc1cc(C2=NOC(c3cc(F)c(F)c(F)c3)(C(F)(F)F)C2)ccc1C(=O)NCc1ncccc1Cl (stereo not drawn) [Compound 14]
> 80%: pest or weed control at 0.1 ppm ([1]; dose 0.1 ppm, spray, 6 days) | pest or weed control at 1 ppm ([1]; dose 1 ppm, spray, 6 days) | pest or weed control at 10 ppm ([1]; dose 10 ppm, spray, 6 days) | pest or weed control at 1 ppm ([2]; dose 1 ppm, spray, 6 days) | pest or weed control at 10 ppm ([2]; dose 10 ppm, spray, 6 days) | pest or weed control at 25 ppm ([2]; dose 25 ppm, spray, 6 days) | pest or weed control at 0.1 ppm ([3]; dose 0.1 ppm, spray, 6 days) | pest or weed control at 1 ppm ([3]; dose 1 ppm, spray, 6 days) | pest or weed control at 10 ppm ([3]; dose 10 ppm, spray, 6 days) | pest or weed control at 1 ppm [4, 9] | pest or weed control at 10 ppm [4, 10] | pest or weed control at 25 ppm [4, 11] | pest or weed control at 0.1 ppm ([5]; dose 0.1 ppm, spray, 6 days) | pest or weed control at 1 ppm ([5]; dose 1 ppm, spray, 6 days) | pest or weed control at 10 ppm ([5]; dose 10 ppm, spray, 6 days) | pest or weed control at 0.1 ppm ([6]; dose 0.1 ppm, spray, 6 days) | pest or weed control at 1 ppm ([6]; dose 1 ppm, spray, 6 days) | pest or weed control at 10 ppm ([6]; dose 10 ppm, spray, 6 days) | pest or weed control at 0.1 ppm ([7]; dose 0.1 ppm, spray, 6 days) | pest or weed control at 1 ppm ([7]; dose 1 ppm, spray, 6 days) | pest or weed control at 10 ppm ([7]; dose 10 ppm, spray, 6 days) | pest or weed control at 0.1 ppm ([8]; dose 0.1 ppm, spray, 6 days) | pest or weed control at 1 ppm ([8]; dose 1 ppm, spray, 6 days) | pest or weed control at 10 ppm ([8]; dose 10 ppm, spray, 6 days)

Cc1cc(C2=NOC(c3cc(Cl)c(F)c(Cl)c3)(C(F)(F)F)C2)ccc1C(=O)NCCc1ccc(Cl)nc1 (stereo not drawn) [Compound 15]
> 80%: pest or weed control at 0.1 ppm [1] | pest or weed control at 1 ppm [1] | pest or weed control at 10 ppm [1] | pest or weed control at 1 ppm [2] | pest or weed control at 10 ppm [2] | pest or weed control at 25 ppm [2] | pest or weed control at 0.1 ppm [3] | pest or weed control at 1 ppm [3] | pest or weed control at 10 ppm [3] | pest or weed control at 1 ppm ([4]; 24 h) | pest or weed control at 10 ppm ([4]; 24 h) | pest or weed control at 25 ppm ([4]; 24 h) | pest or weed control at 0.1 ppm [5] | pest or weed control at 1 ppm [5] | pest or weed control at 10 ppm [5] | pest or weed control at 0.1 ppm [6] | pest or weed control at 1 ppm [6] | pest or weed control at 10 ppm [6] | pest or weed control at 0.1 ppm [7] | pest or weed control at 1 ppm [7] | pest or weed control at 10 ppm [7] | pest or weed control at 0.1 ppm [8] | pest or weed control at 1 ppm [8] | pest or weed control at 10 ppm [8]

Cc1cc(C2=NOC(c3cc(F)c(F)c(F)c3)(C(F)(F)F)C2)ccc1C(=O)NCCc1ccc(Cl)nc1 (stereo not drawn) [Compound 16]
> 80%: pest or weed control at 0.1 ppm ([1]; dose 0.1 ppm, spray, 6 days) | pest or weed control at 1 ppm ([1]; dose 1 ppm, spray, 6 days) | pest or weed control at 10 ppm ([1]; dose 10 ppm, spray, 6 days) | pest or weed control at 1 ppm ([2]; dose 1 ppm, spray, 6 days) | pest or weed control at 10 ppm ([2]; dose 10 ppm, spray, 6 days) | pest or weed control at 25 ppm ([2]; dose 25 ppm, spray, 6 days) | pest or weed control at 0.1 ppm ([3]; dose 0.1 ppm, spray, 6 days) | pest or weed control at 1 ppm ([3]; dose 1 ppm, spray, 6 days) | pest or weed control at 10 ppm ([3]; dose 10 ppm, spray, 6 days) | pest or weed control at 1 ppm [4, 9] | pest or weed control at 10 ppm [4, 10] | pest or weed control at 25 ppm [4, 11] | pest or weed control at 0.1 ppm ([5]; dose 0.1 ppm, spray, 6 days) | pest or weed control at 1 ppm ([5]; dose 1 ppm, spray, 6 days) | pest or weed control at 10 ppm ([5]; dose 10 ppm, spray, 6 days) | pest or weed control at 0.1 ppm ([6]; dose 0.1 ppm, spray, 6 days) | pest or weed control at 1 ppm ([6]; dose 1 ppm, spray, 6 days) | pest or weed control at 10 ppm ([6]; dose 10 ppm, spray, 6 days) | pest or weed control at 0.1 ppm ([7]; dose 0.1 ppm, spray, 6 days) | pest or weed control at 1 ppm ([7]; dose 1 ppm, spray, 6 days) | pest or weed control at 10 ppm ([7]; dose 10 ppm, spray, 6 days) | pest or weed control at 0.1 ppm ([8]; dose 0.1 ppm, spray, 6 days) | pest or weed control at 1 ppm ([8]; dose 1 ppm, spray, 6 days) | pest or weed control at 10 ppm ([8]; dose 10 ppm, spray, 6 days)
